Test [1] concerns antigen-induced airway contractile response in guinea pigs. Kind of test: Effect on experimental asthma (antigen-induced airway contractile response). Format: in vivo. The following applies: guinea pig. The protocol: (4) Effect on experimental asthma
The airway contractile response to intravenous administration of an antigen (benzylpenicilloyl-bovine serum albumin) to guinea pigs passively senstitized with anti-benzylpenicilloyl-bovine gamma globulin guinea pig serum was determined by the Konzett-Rossler method.
The test substance suspended in 0.5% methylcellulose was administered orally and 3 hours later, the airway contractile response caused by antigen-antibody reaction was determined. With the response on complete obstruction of the airway cannula with a clamp taken as 100% contraction, the maximal airway contractile response (expressed in percent) caused by antigen antibody reaction was determined. From this value, the percent inhibition, relative to the control, by the test substance was determined.

Test [2] has as its target T1, LTD4 receptor (Cavia porcellus, UniProt Q2NNR5).
T1 construct: membrane fraction prepared from the guinea pig lung; from tissue; host or cells: guinea pig lung membrane fraction
T1 sequence (Q2NNR5 1-340): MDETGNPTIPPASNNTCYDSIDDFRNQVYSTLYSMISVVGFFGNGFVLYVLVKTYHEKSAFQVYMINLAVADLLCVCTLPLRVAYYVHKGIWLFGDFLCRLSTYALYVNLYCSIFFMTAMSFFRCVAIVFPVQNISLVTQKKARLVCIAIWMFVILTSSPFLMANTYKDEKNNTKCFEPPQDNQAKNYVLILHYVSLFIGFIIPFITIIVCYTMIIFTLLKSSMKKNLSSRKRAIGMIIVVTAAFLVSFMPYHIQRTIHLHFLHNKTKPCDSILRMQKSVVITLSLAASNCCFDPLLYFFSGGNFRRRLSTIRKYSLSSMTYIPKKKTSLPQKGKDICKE
In words: Leukotriene D4 (LTD4) binding assay (3H-LTD4, guinea pig lung membrane fraction). The following applies: for pIC50: guinea pig lung membrane, 3H-LTD4, 25° C., 1 hour. The protocol: 1) Leukotriene D4 (LTD4) binding assay
First, 0.2 pmol of ^3 H-LTD4 and 100 μg of the membrane fraction prepared from the guinea pig lung were incubated at 25° C. for 1 hour and then the reaction mixture was filtered through a glass filter. The radioactivity of ^3 H-LTD4 bound to the membrane remaining on the glass filter was determined and this value was regarded as total binding (total).
Similarly, 100 μg of the membrane fraction was incubated with 0.2 pmol of ^3 H-LTD4 in the presence of a large excess of cold LTD4 (0.1 nmol) at 25° C. for 1 hour and the radioactivity of ^3 H-LTD4 bound to the membrane was determined and regarded as nonspecific binding (NSB).
Specific binding (SB) of ^3 H-LTD4 was calculated according to expression (1).
To investigate the effect of the test substance on LTD4 receptor binding, the test substance was added at the determination of total binding and the total binding in the presence of the test substance (total') was determined. The percent inhibition was calculated according to expression (2).
(total-total')/SB×100 (2)

The test system of test [3] is endogenous LT-induced airway contractile response in guinea pigs. In words: Effect on endogenous leukotriene (LT)-induced experimental asthma. Format: in vivo. The following applies: guinea pig; for ED50: Cavia porcellus.

We go through 7 compounds from patent publication US5399703A, “Tetrazole derivatives and drugs” (Nippon Shinyaku Company, Limited, priority 1990, dated 1995).

pIC50: −log10 of the molar value. Like-named read-outs stand apart in the source and are kept apart here.

In the case of `CCN(CC)C(=O)COC(=O)COc1ccc(C(=O)Nc2ccccc2Sc2ccccc2-c2nnn[nH]2)cc1` [Example 105, N,N-Diethylcarbamoylmethyl 4-[2-[2-(1H-tetrazol-5-yl)phenylthio]phenylcarbamoyl]phenoxyacetate], the “Experimental asthma p.o. inhibition (%)” value in test [1] (at 10 mg/kg) is 87.9%. Moreover, in test [2], the negative logarithm of the IC50 (pIC50) (in general, the IC50 on a negative log10 scale, so that one unit is a factor of ten) was 4.74. The “Endogenous LT-induced experimental asthma p.o. inhibition (%)” value in test [3] (at 0.3 mg/kg) was 29.4%.
Compound `CCCc1c(OCC(O)COc2ccc3c(=O)cc(C(=O)O)oc3c2CCC)ccc(C(C)=O)c1O` (stereo not drawn) [C, reference compound] gave a pIC50 in test [2] of 5.42. Moreover, the ED50 (as a rule, the dose that gives a 50% effect, or the effect in half of the subjects) in test [3] (iv, read-out: Endogenous LT-induced experimental asthma ED50 (i.v.)) stood at 0.2 mg/kg.
The compound `O=C(Nc1ccccc1Sc1ccccc1-c1nnn[nH]1)c1ccc(OCCCCc2ccccc2)cc1` [Example 4, N-[2-[2-(1H-Tetrazol-5-yl)phenylthio]phenyl]-4-(4-phenylbutoxy)benzamide] had a pIC50 in test [2] of 7.45. Besides, in test [3] (at 30 mg/kg), the “Endogenous LT-induced experimental asthma p.o. inhibition (%)” value turned out to be 30.9%.
As to `CCCC/C=C/COc1ccc(C(=O)Nc2ccccc2Sc2ccccc2-c2nnn[nH]2)cc1` [Example 14, (E)-N-[2-[2-(1H-Tetrazol-5-yl)phenylthio]phenyl]-4-(2-heptenyloxy)benzamide], the negative logarithm of the IC50 (pIC50) in test [2] is 7.66. Besides, the “Endogenous LT-induced experimental asthma p.o. inhibition (%)” value in test [3] (at 30 mg/kg) came out at 58.3%.
`CCCCOC(=O)COc1ccc(C(=O)Nc2ccccc2Sc2ccccc2-c2nnn[nH]2)cc1` [Example 67, Butyl 4-[2-[2-(1H-tetrazol-5-yl)phenylthio]phenylcarbamoyl]phenoxyacetate]: the “Experimental asthma p.o. inhibition (%)” value in test [1] (at 10 mg/kg) is 82.6%. The same compound had a pIC50 in test [2] of 5.48. Besides, the “Endogenous LT-induced experimental asthma p.o. inhibition (%)” value in test [3] (at 0.3 mg/kg) is listed as 61.2%.
Turning to `O=C(O)COc1ccc(C(=O)Nc2ccccc2Sc2ccccc2-c2nnn[nH]2)cc1` [Example 6, 4-[2-[2-(1H-Tetrazol-5-yl)phenylthio]phenylcarbamoyl]phenoxyacetic acid], the “Experimental asthma p.o. inhibition (%)” value in test [1] (at 30 mg/kg) worked out at 37.9%. The inhibition (as a rule, the drop in the measured response relative to a control, in per cent) at 10 µM in test [2] (at 10^-5 M) worked out at 28.9%. Further, the “Endogenous LT-induced experimental asthma p.o. inhibition (%)” value in test [3] (at 0.1 mg/kg) worked out at 36.2%.
Turning to `CCCCCCOc1ccc(C(=O)Nc2ccccc2Sc2ccccc2-c2nnn[nH]2)cc1` [Example 7, N-[2-[2-(1H-Tetrazol-5-yl)phenylthio]phenyl]-4-hexyloxybenzamide], the ED50 in test [1] (Cavia porcellus, po, 3 hours before antigen) was 3.52 mg/kg; in test [3] (po, 3 hours before antigen, read-out: Endogenous LT-induced experimental asthma p.o. ED50), 0.111 mg/kg. The same compound had a pIC50 in test [2] of 6.74.
